“Also recorded” adds a separate entry of the source. One block for each molecule: values may come before it.
Columns and labels:
[1] = system: Aβ-reactive T-cell line 2 (DRB1 1301/0401); test: Human T-cell line proliferation assay, T-cell line 2; type: cell-based; conditions: T-cell line 2, autologous PBMCs
Protocol: (§1) PBMCs were isolated from the freshly drawn heparinized whole blood of each study participant (N=133) by Ficoll-Paque (Amersham Pharmacia Biotech, Uppsala, Sweden) gradient centrifugation, according to the manufacturer's instructions. Cells were cultured in 30 wells of 96-well round-bottom plates at 2×10^5 cells/well in RPMI medium (containing 2.5% nonautologous serum, 4 mM L-glutamine, 10 mM HEPES, 1 mM sodium pyruvate, and 10 mM nonessential amino acids) in the presence of pure human Aβ1-42 peptide. On the 5th day of culture, 10 U/ml of recombinant human interleukin (IL)-2 was added by replacing half of the medium with IL-2-containing medium. On day 7 the medium was replaced with IL-2-free medium. On day 10, half of the cells from each well were restimulated with irradiated autologous PBMCs in the presence or absence of 5 μg/ml Aβ for 48 hours and then pulsed with [3H] thymidine for 12 hours. Cells w then harvested, their radioactivity measured (in cpm), and the stimulation index (SI; (cpm in the presence of Aβ divided by cpm in the absence of Aβ) determined. Positive wells (SI≧2.5 and Δcpm of at least 2000) obtained in the split-well assay were restimulated, 14 days after their primary stimulation, in the presence of irradiated (7000 R) autologous PBMCs (2×10^5 cells/well) and Aβ1-42. T-cell lines were then supplemented with IL-2 (10 U/ml) after 48 hours and every 2 days thereafter until they reached a resting state.
(§2) Antigen (Ag)-specific proliferative responses were measured by culturing the contents of positive wells from the split-well assay with irradiated PBMCs (2×10^5/well) at 37° C. in duplicate wells in 96-well U-bottom microtiter plates in a final volume of 200 μl of culture medium alone or culture medium containing serially diluted nested Aβ peptides. After 48 hours, 1 μCi of [3H]thymidine (Amersham, Arlington Heights, Ill.) was added to each well in 50 μl of culture medium. The cells were harvested 16 hours later onto fiberglass filters with a cell harvester (Packard, Filtermate 196), and [3H]thymidine incorporation was determined with a Packard Matrix 96 direct counter.

Aβ-reactive T-cell lines = test: Epitope specificity and HLA-DR allele restriction of Aβ-reactive T-cell lines; type: cell-based, human; conditions: autologous and semi-autologous PBMCs as antigen-presenting cells
Protocol: as §1, §2
High-resolution HLA typing of PBMCs of the human subjects was carried out at the Brigham and Women's Hospital Clinical Laboratory using the PCR/RFLP method. Genomic DNA was extracted from whole blood or frozen cells. DNA was amplified using locus-specific and group-specific primers for DNA class II loci. DNA fragments were detected using agarose gel electrophoresis and subjected to restriction enzyme digestion, as recommended by the 10th International Histocompatibility Workshop (http://www.ihwg.org/components/ssopr.htm). The DNA fragments were then separated by agarose gel electrophoresis and the specific HLA-DR alleles were analyzed visually.
To identify the HLA-DR alleles that play a role in Aβ immunogenicity, Aβ-reactive T-cell lines were generated from the PBMCs of human subjects as described in Materials and Methods. These T cells were then restimulated with autologous or semi-autologous PBMCs (nonautologous PBMCs bearing one of the autologous DRB1 alleles) to determine their epitope specificity and identify their dominant epitope-presenting HLA-DR alleles. Overall, the PBMCs of 89 of the 133 individuals analyzed in this study yielded positive Aβ-reactive T-cell responses in the split-well assay as described in Materials and Methods and our previous publication ((2003). J Clin Invest 112:415-422). From these 89 PBMC samples, 39 Aβ-reactive T-cell lines were successfully generated and were analyzed for epitope specificity and HLA-DR allele restriction, as shown in FIG. 1. Table 2 lists the HLA-DR alleles whose expression by PBMCs was essential for proliferation of the Aβ-specific T-cell lines. The table also records the frequency of the HLA-DR alleles in our study population and lists the Aβ peptides harboring the dominant T-cell epitopes. […]

[2] = system: Aβ-reactive T-cell line 1 (DRB1 1501/1502); test: Human T-cell line proliferation assay, T-cell line 1; type: cell-based; conditions: for T-cell proliferation ([3H]thymidine incorporation), in words: T-cell line 1, autologous PBMCs
Protocol: as §1, §2

[3] = system: splenocyte-derived T cells of HLA-DR15 humanized mice; test: Proliferation assay of mouse-derived T cells, Aβ-immunized DR15 humanized mice; type: cell-based; conditions: for T-cell proliferation, in words: mice bearing the DRB1*1501 allele
Protocol: (§3) Mice were immunized by subcutaneous injection of Aβ 1-42 ([…]) emulsified in complete Freund's Adjuvant (CFA) H37Ra (Difco, Detroit, Mich., USA) or in incomplete Freund's Adjuvant (IFA; Sigma, Israel), as indicated in Figure legends. When indicated, pertussis toxin (PTX) (List Biological Laboratories, Campbell, Calif., USA) was injected intravenously (200 ng/mouse) on day 0 and again 48 hours later.
(§4) Popliteal lymph nodes or spleens of immunized mice were harvested and cultured (5×10^6 cells/ml) in U-shaped 96-well-plate culture dishes in DMEM containing 10% fetal calf serum, 10 mM HEPES, 1 mM sodium pyruvate, 10 mM nonessential amino acids, 1% Pen/Strep, and […] b-mercaptoethanol. After 72 hours, 3[H]thymidine ([…]) was added. Cells were harvested after 12 hours, and their radioactivity was measured.

[4] = system: splenocyte-derived T cells of HLA-DR4 humanized mice; test: Proliferation assay of mouse-derived T cells, Aβ-immunized DR4 humanized mice; type: cell-based; conditions: mice bearing the DR4 allele
Protocol: as §3, §4

HLA-DR15 (DRB1*1501) = HLA-DR15 (DRB1*1501) (human); test: cell-based or functional assay
HLA-DR4 (DRB1*0401) = HLA-DR4 (DRB1*0401) (human); test: cell-based or functional assay

Molecule: KLVFFAEDVGSNKGA (listed as Homo sapiens) [Aβ16-30]
T-cell proliferation ([3H]thymidine incorporation), in words [1]: stimulated

Molecule: QKLVFFAEDVGSNKGAIIGL (listed as Homo sapiens) [Aβ15-34]
DRB1 allele with which the T-cell-stimulatory Aβ peptide stimulates Aβ-reactive T-cell lines (Aβ-reactive T-cell lines): DRB1*0101
T-cell proliferation ([3H]thymidine incorporation), in words [1]: stimulated

Molecule: Aβ1-28: N-terminal fragment of Aβ, residues 1-28; nested overlapping Aβ peptide
T-cell proliferation ([3H]thymidine incorporation), in words [2]: only mild T-cell proliferation
T-cell proliferation, in words [3]: only a mild T-cell response

Molecule: QKLVFFAEDVGSNKG (listed as Homo sapiens) [Aβ15-29]
DRB1 allele with which the T-cell-stimulatory Aβ peptide stimulates Aβ-reactive T-cell lines (Aβ-reactive T-cell lines): DRB1*1001

Molecule: QKLVFFAEDVGSNKGAIIGLMVGGVVIA (listed as Homo sapiens) [Aβ15-42]
T-cell proliferation ([3H]thymidine incorporation), in words [2]: triggered
T-cell proliferation, in words [4]: induced
DRB1 allele with which the T-cell-stimulatory Aβ peptide stimulates Aβ-reactive T-cell lines (Aβ-reactive T-cell lines): DRB1*1502; also recorded: DRB1*0301
T-cell proliferation ([3H]thymidine incorporation), in words [1]: triggered
T-cell proliferation, in words [3]: strong T-cell proliferation

Molecule: Aβ25-42: T-cell-stimulatory Aβ peptides between Aβ residues 25 and 42 (GSNKGAIIGLMVGGVVIA; Amyloid-beta protein 42; UniProt P05067 696-713, looked up, fragment)
DRB1 allele with which the T-cell-stimulatory Aβ peptide stimulates Aβ-reactive T-cell lines (Aβ-reactive T-cell lines): DRB1*1501

Molecule: LVFFAEDVGSNKGAI (listed as Homo sapiens) [Aβ17-31]
DRB1 allele with which the T-cell-stimulatory Aβ peptide stimulates Aβ-reactive T-cell lines (Aβ-reactive T-cell lines): DRB1*1301
T-cell proliferation ([3H]thymidine incorporation), in words [1]: stimulated

Molecule: GSNKGAIIGLMVGGV [Aβ25-39]
SI (stimulation index), T-cell proliferation ([2]; T-cell line 1, 5 μg peptide/ml, irradiated autologous PBMCs, 72 hours): 17.3
T-cell proliferation ([3H]thymidine incorporation), in words [2]: specifically stimulated
SI (stimulation index), T-cell proliferation ([3]; DR15 mice, 10 μg/ml, 72 hours): 8.8

Molecule: Aβ19-33: nested overlapping Aβ peptide, residues 19-33 (FFAEDVGSNKGAIIG)
T-cell proliferation ([3H]thymidine incorporation), in words [1]: Substantially lower T-cell proliferation

Molecule: VFFAEDVGSNKGAII (listed as Homo sapiens) [Aβ18-32]
DRB1 allele with which the T-cell-stimulatory Aβ peptide stimulates Aβ-reactive T-cell lines (Aβ-reactive T-cell lines): DRB1*0404; also recorded: DRB1*0401
T-cell proliferation ([3H]thymidine incorporation), in words [1]: stimulated

T-cell line 1 proliferation, SI at 5 µg peptide/ml (HLA-DR15 (DRB1*1501)): 10.2 SI
B1: Aβ22-36 peptide (peptide)
peptide: EDVGSNKGAIIGLMV

T-cell line 1 proliferation, SI at 5 µg peptide/ml (HLA-DR15 (DRB1*1501)): 17.3 SI
T-cell proliferation of splenocytes of Aβ-immunized DR15 mice, SI at 10 µg/ml (HLA-DR15 (DRB1*1501)): 8.8 SI
B2: Aβ25-39 peptide (peptide)
peptide: GSNKGAIIGLMVGGV

T-cell line 1 proliferation, SI at 5 µg peptide/ml (HLA-DR15 (DRB1*1501)): 12.6 SI
T-cell proliferation of splenocytes of Aβ-immunized DR15 mice, SI at 10 µg/ml (HLA-DR15 (DRB1*1501)): 12.2 SI
B3: Aβ28-42 peptide (peptide)
peptide: KGAIIGLMVGGVVIA

T-cell line 2 proliferation, SI at 5 µg peptide/ml (HLA-DR4 (DRB1*0401)): 6.4 SI
T-cell proliferation of splenocytes of Aβ-immunized DR4 mice, SI at 10 µg/ml (HLA-DR4 (DRB1*0401)): 5.9 SI
B4: Aβ16-30 peptide (peptide)
peptide: KLVFFAEDVGSNKGA

T-cell line 2 proliferation, SI at 5 µg peptide/ml (HLA-DR4 (DRB1*0401)): 7.8 SI
T-cell proliferation of splenocytes of Aβ-immunized DR4 mice, SI at 10 µg/ml (HLA-DR4 (DRB1*0401)): 3.7 SI
T-cell line 1 proliferation, SI at 5 µg peptide/ml (HLA-DR15 (DRB1*1501)): 15.8 SI
T-cell proliferation of splenocytes of Aβ-immunized DR15 mice, SI at 10 µg/ml (HLA-DR15 (DRB1*1501)): 14.2 SI
B5: Aβ15-42 peptide (peptide)
peptide: QKLVFFAEDVGSNKGAIIGLMVGGVVIA

T-cell line 2 proliferation, SI at 5 µg peptide/ml (HLA-DR4 (DRB1*0401)): 6.2 SI
T-cell proliferation of splenocytes of Aβ-immunized DR4 mice, SI at 10 µg/ml (HLA-DR4 (DRB1*0401)): 6.1 SI
B6: Aβ17-31 peptide (peptide)
peptide: LVFFAEDVGSNKGAI

T-cell line 2 proliferation, SI at 5 µg peptide/ml (HLA-DR4 (DRB1*0401)): 6.1 SI
T-cell proliferation of splenocytes of Aβ-immunized DR4 mice, SI at 10 µg/ml (HLA-DR4 (DRB1*0401)): 9.2 SI
B7: Aβ18-32 peptide (peptide)
peptide: VFFAEDVGSNKGAII

Reference: patent publication US20110178024A1, “AMYLOID BETA-PEPTIDES AND METHODS OF USE THEREOF” (Ben Gurion University of the Negev Research and Development …, priority 2008, published 2011)
